Earlier results as cited in US20110200632A1, “ADJUVANTING MATERIAL” (Lipotek Pty Ltd., priority 2005, published 2011).

Test system: splenocytes and macrophages
Conditions: versus Pam3Cys

CCCCCCCCCCCCCCCC(=O)OCC(CSC[C@H](N)C(=O)O)OC(=O)CCCCCCCCCCCCCCC (stereo partly drawn) [Pam2Cys, S-[2,3-bis(palmitoyloxy)propyl]cysteine]
stimulator of splenocytes and macrophages, compared with Pam3Cys: more potent
